In US8362031B2, “Lonidamine analogues and treatment of polycystic kidney disease” (University of Kansas, priority 2004, dated 2013):
“Also recorded” adds a separate entry of the source.

What was measured:
rats = experiment: Toxicology: organs sectioned and examined after dosing; assay type: in vivo; conditions: for Toxicology: liver, lung, pancreas, spleen, heart and kidney (histology): two animals examined, findings per animal; for Kidney (histology) / Liver and Pancreas (histology): single injection, sacrificed five days after injection, per animal
Experimental: In at least two of the animals in each group, the pancreas, right kidney and part of the liver, heart, spleen, and lung were removed and evaluated for toxic effects.
The toxicology of animals receiving some of the compounds of the present invention IP and/or oral was examined. At the time of sacrifice samples of liver, pancreas, heart, lung, spleen and kidney were removed, visually inspected, and immersion fixed in Bouin's solution for a minimum of 48 hours. All organs were then sectioned and examined for evidence of necrosis, inflammation, hemorrhage, and possible tumors. The major veins in each tissue were also examined for distention, especially in the liver and pancreas, and any other abnormalities are compared to known histopathological states. In addition to the above, the heart was examined for evidence of fibrosis in the muscular walls, and to compare the thickness of the ventricular walls. The pancreas was examined mainly for calcium deposits, while the lung was checked for signs of any exudates or hemorrhage, especially in the alveolar spaces. Finally, the kidney was examined mainly for microscopic hemorrhages, tubular necrosis or alterations in the glomeruli in the cortex.
In this example, the effects of RC-MC-30 were compared with those of lonidamine in sexually mature rats. As discussed above, each of the rats (8 total) received a single injection and were sacrificed five days after injection and examined.

Male Long Evans rats = experiment: In vivo antispermatogenic testing in Long Evans rats; conditions: for Mortality (25 mg/kg) / Response 25 mg/kg: 25 mg/kg single i.p. injection; for Response 25 mg/kg / Response 200 mg/kg: animals responding out of animals surviving, five days following injection; for Mortality (200 mg/kg) / Response 200 mg/kg: 200 mg/kg single i.p. injection
[1] = test system: Salmonella Typhimurium TA 100; experiment: Ames test for mutagenicity (plate assay, colony count); conditions: 48 hours at 37° C.; for Ames test (+)S9 0.1 mg/pl. / Ames test (+)S9 1 mg/pl. / Ames test (+)S9 10 mg/pl.: (+)S9 mix; for Ames test (−)S9 0.1 mg/pl. / Ames test (−)S9 1 mg/pl. / Ames test (−)S9 10 mg/pl.: (−)S9 mix

| SMILES | Toxicology: liver, lung, pancreas, spleen, heart and kidney (histology) (rats; 25 mg/kg) | Toxicology: liver, lung, pancreas, spleen, heart and kidney (histology) (rats; 200 mg/kg) | Mortality (25 mg/kg) (Male Long Evans rats) | Response 25 mg/kg (Male Long Evans rats) | Mortality (200 mg/kg) (Male Long Evans rats) | Response 200 mg/kg (Male Long Evans rats) | Ames test (+)S9 0.1 mg/pl. [1] | Ames test (+)S9 1 mg/pl. [1] | Ames test (+)S9 10 mg/pl. [1] | Ames test (−)S9 0.1 mg/pl. [1] | Ames test (−)S9 1 mg/pl. [1] | Ames test (−)S9 10 mg/pl. [1] | other results |
| --- | --- | --- | --- | --- | --- | --- | --- | --- | --- | --- | --- | --- | --- |
| COC(=O)c1nn(Cc2ccc(Cl)cc2Cl)c2cnccc12 [JWS-1-130, 1-(2,4-dichlorobenzyl)-1H-pyrazolo[3,4-c]pyridine-3-carboxylic acid methyl ester] | The liver appeared to have distended veins throughout, but no other abnormalities were noted; also recorded: The liver did have distended veins throughout, with small scattered patches of necrosis, usually located around the periportal areas | liver, lung, pancreas, spleen, heart and kidney all appeared within normal limits; also recorded: The liver did have distended veins throughout, with small scattered patches of necrosis, usually located around the periportal areas | 0/5 | 0/5 | 0/5 | 0/5 | Pass | Pass | Pass | Pass | Pass | Pass | – |
| COC(=O)c1nn(Cc2ccc(Cl)cc2Cl)c2ccc(OC)nc12 [JWS-1-142, 1-(2,4-dichlorobenzyl)-5-methoxy-1H-pyrazolo[4,3-b]pyridine-3-carboxylic acid methyl ester] | liver, lung, pancreas, spleen, heart and kidney all appeared within normal limits | The liver contained a small, confined cluster of lymphocytes in the parenchyma; also recorded: liver, lung, pancreas, spleen, heart and kidney all appeared within normal limits | 0/5 | 0/5 | 0/5 | 0/5 | Pass | Pass | Pass | Pass | Pass | Pass | – |
| COc1ccc2c(n1)c(C(=O)O)nn2Cc1ccc(Cl)cc1Cl [JWS-1-144, 1-(2,4-dichlorobenzyl)-5-methoxy-1H-pyrazolo[4,3-b]pyridine-3-carboxylic acid] | liver, lung, pancreas, spleen, heart and kidney that appeared within normal limits | – | 0/5 | 0/5 | – | – | Pass | Pass | Pass | Pass | Pass | Pass | – |
| COc1ccc2c(n1)c(C(=O)NN)nn2Cc1ccc(Cl)cc1Cl [JWS-1-146, 1-(2,4-dichlorobenzyl)-5-methoxy-1H-pyrazolo[4,3-b]pyridine-3-carboxylic acid hydrazide] | liver, lung, pancreas, spleen, heart and kidney that appeared within normal limits | – | 0/5 | 0/5 | – | – | Pass | Pass | Pass | Pass | Pass | Pass | – |
| COC(=O)c1nn(Cc2ccc(Cl)cc2Cl)c2cc(F)ccc12 [JWS-1-158, 1-(2,4-dichlorobenzyl)-6-fluoro-1H-indazole-3-carboxylic acid methyl ester] | – | – | 0/5 | 4/5 | 0/5 | 5/5 | Pass | Pass | Pass | Pass | Pass | Pass | Toxicology: liver, lung, pancreas, spleen, heart and kidney (histology) (rats; 25 mg/kg, listed as JSW-1-158): liver, lung, pancreas, spleen, heart and kidney all appeared within normal limits; also recorded: The lung had thickening of the alveolar and bronchiole walls, and scattered areas of moderate sized hemorrhaging covering several adjacent alveoli; Toxicology: liver, lung, pancreas, spleen, heart and kidney (histology) (rats; 200 mg/kg, listed as JSW-1-158): The pancreas had areas of lymphocytic infiltrates extending from the periphery inwards between the acinar cells; also recorded: liver, lung, pancreas, spleen, heart and kidney all appeared within normal limits |
| NNC(=O)c1nn(Cc2ccc(Cl)cc2Cl)c2cc(F)ccc12 [JWS-1-160, 1-(2,4-dichlorobenzyl)-6-fluoro-1H-indazole-3-carboxylic acid hydrazide] | – | – | 0/5 | 3/5 | 2/5 | 3/3 | Pass | Pass | Pass | Pass | Pass | Pass | Toxicology: liver, lung, pancreas, spleen, heart and kidney (histology) (rats; 25 mg/kg, listed as JSW-1-160): The kidney does have scattered, small patches of tubular necrosis in the inner cortex; also recorded: The liver had several distended veins, but no other abnormalities were noted; also recorded: liver, lung, pancreas, spleen, heart and kidney all appeared within normal limits; Toxicology: liver, lung, pancreas, spleen, heart and kidney (histology) (rats; 200 mg/kg, listed as JSW-1-160): The kidney did have scattered, small patches of tubular necrosis in the inner cortex; also recorded: liver, lung, pancreas, spleen, heart and kidney all appeared within normal limits |
| O=C(O)/C=C/c1nn(Cc2ccc(Cl)cc2Cl)c2cc(F)ccc12 [JWS-1-170, 3-[1-(2,4-dichlorobenzyl)-6-fluoro-1H-indazol-3-yl]-acrylic acid] | liver, lung, pancreas, spleen, heart and kidney that appeared within normal limits | liver, lung, pancreas, spleen, heart and kidney all appeared within normal limits; also recorded: The liver did have moderate patches (5-10 cells in diameter) of necrosis mainly in the periportal areas | 0/5 | 3/5 | 0/5 | 3/3 | Pass | Pass | Pass | Pass | Pass | Pass | – |
| COC(=O)c1nn(Cc2ccc(Cl)cc2Cl)c2ccccc12 [RC-MC-30, 1-(2,4-dichlorobenzyl)indazole-3-carboxylic acid methyl ester] | – | – | 0/5 | 3/5 | 0/5 | 4/5 | Pass | Pass | Pass | Pass | Pass | Pass | Kidney (histology) (rats; Dosage 25 mg/kg): Small areas with blood; Liver and Pancreas (histology) (rats; Dosage 25 mg/kg): Non-remarkable,; Kidney (histology) (rats; Dosage 200 mg/kg): Patchy hemorrhagic areas,; Liver and Pancreas (histology) (rats; Dosage 200 mg/kg): Non-remarkable, |
| O=C(O)c1nn(Cc2ccc(Cl)cc2Cl)c2cc(C(F)(F)F)ccc12 [RC-MC-100, 1-(2,4-dichlorobenzyl)-6-trifluoromethyl-1H-indazole-3-carboxylic acid] | – | – | 0/5 | 0/5 | 0/5 | 0/5 | Pass | Pass | Pass | Pass | Pass | Pass | Clinical signs after IP injection (rats; 200 mg/kg IP, five animals): all 5 animals tested became lethargic and ceased moving; also recorded: minor tremors in both hindlimbs which lasted approximately 30 minutes; also recorded: Two of the animals also had wet rales; Deaths after IP injection (rats; 200 mg/kg IP, five animals): Three of the animals died 2-3 hours later; Recovery after IP injection (rats; 200 mg/kg IP, five animals): the other two recovered and did not show any other symptoms |
